The source of these data is patent US20230026772A1, “DIBENZOPYRAN AMPK ACTIVATOR COMPOUNDS, COMPOSITIONS, METHODS AND USES THEREOF” (SOCIETE DES PRODUITS NESTLE S.A., priority 2019, published 2023).

For test [1], the system named is AMPK complexes containing the β2 isoform subunit. The test can be described thus: pACC HTRF assay in AMPKβ1/β2 double knockout U-2 OS cells stably expressing β2 WT. The class given is cell-based, human. Conditions: AMPKβ1β2 double knockout cells stably expressing β2 WT isoform, varying concentrations, 30 mins at 37 C; FIG. 4. As to the method:
(§1) U-2 OS cells AMPKβ1β2 double knockout cells stably expressing AMPK β1 or β2 were treated with varying concentrations of Compound 1 or compound 2 for 30 mins at 37 C.
(§2) Phosphorylation of ACC was assessed using the HTRF Cisbio (pACC kit).
We took AMPKβ1/β2 double knockout cells, and re-introduced the expression of human β1 WT or β2 WT isoforms. […] Cells stably expressing β1 WT or β2 WT were treated with varying concentrations of compound 1 and compound 2, and subjected to the pACC HTRF (Cisbio) assay to determine the level of phosphorylation of the AMPK substrate, ACC, in cell lysates, as in example 2. […] This activation profile is characteristic of activators that bind to the ADaM site and consistent with previous studies showing that ADaM-site activators have poorer activation of β2-containing complexes in vitro and in cells.

For test [2], the target named is T1, AMPKα2β1γ1 complex (Homo sapiens, UniProt P54646+Q9Y478).
T1 construct: His; made in house
The test can be described thus: HTRF KinEASE activity assay with bacterially-expressed, phosphorylated purified AMPKα2β1γ1. The class given is biochemical. As to conditions: varying concentrations, 30 mins incubation, cell free; FIG. 1. As to the method: Varying concentrations of compound 1 and compound 2 were incubated with phosphorylated purified AMPK α2β1γ1 for 30 mins. AMPK activity was determined using the HTRF KinEASE assay kit and results are presented as the ratio of 665/620 nm (STK1 phosphorylation).
The AMPKα2β1γ1 complex was expressed in bacteria and purified through the His-α subunit by nickel purification, purified through gel filtration and phosphorylated by incubation with CaMKKβ, and then further purified through a final gel filtration purification step. Phosphorylated purified AMPK was incubated with varying concentrations of ligand for 30 mins along with substrate and reagents from the HTRF-KinEASE Cisbio assay kit (STK S1 Kit). Phosphorylation of the substrate was measured by incubating with donor and acceptor antibodies for 2 h at room temperature as per the manufacturer's protocol (Coulerie et al., (2016), J Nat Prod. 2016 Nov. 23; 79(11):2856-2864. Epub 2016 Oct. 28.) and phosphorylated peptide detected by performing HTRF. […] Compound 1 is 3-methoxy-6H-benzo[c]chromene-1,8-diol and Compound 2 is 8-methoxy-6H-benzo[c]chromene-3,10-diol.

For test [3], the system named is AMPK complexes containing β1 WT subunit. Briefly: pACC HTRF assay in AMPKβ1/β2 double knockout U-2 OS cells stably expressing β1 WT. Type of test: cell-based, human. As to conditions: AMPKβ1β2 double knockout cells stably expressing β1 WT, varying concentrations, 30 mins at 37 C; FIG. 3 and FIG. 4. How it is done:
(§3) The β1 WT or β1 S108A mutant were stably expressed in AMPKβ1β2 double knockout cells and treated with varying concentrations of compound 1 or compound 2 for 30 mins at 37 C. Phosphorylation of ACC was assessed using the HTRF Cisbio (pACC kit).
as §1, §2
(§4) AMPKβ1/β2 double knockout U-2 OS Flp-In™ T-Rex™ cell lines were generated and cells were genotyped and analysed by Western blotting to confirm that there was a complete knockout of AMPKβ1/β2. We took these AMPKβ1/β2 double knockout cells, and re-introduced the expression of human β1 wild-type (WT) or a β1 Serine 108 to alanine mutation (S108A). This was achieved using the Flp-In™ system (Invitrogen) present in this cell line and stable cells expressing β1 WT or a β1 S108A mutant were generated according to the manufacturers' protocols.
(§5) Cells stably expressing β1 WT or a β1 S108A mutant were treated with varying concentrations of compound 1 and compound 2 and subjected to the pACC HTRF (Cisbio) assay to determine the level of phosphorylation of the AMPK substrate, ACC, in cell lysates, as in Example 2.
We took AMPKβ1/β2 double knockout cells, and re-introduced the expression of human β1 WT or β2 WT isoforms. […]

Test [4] relates to AMPK (phosphorylation of ACC) in U-2 OS Flp-In T-REx mammalian cells. Briefly: pACC HTRF (Cisbio) assay in U-2 OS Flp-In T-REx cells. The class given is cell-based. Conditions: varying concentrations, 30 mins at 37 C, FIG. 2. As to the method: U-2 OS cells were treated with varying concentrations of compound 1 or compound 2 for 30 mins at 37 C. Phosphorylation of ACC was assessed using the HTRF Cisbio (pACC kit).
U-2 OS Flp-In T-REx cells were seeded at 50 K in a 96-well plate and left overnight at 37 C in DMEM GlutaMAX (Thermo Fisher Scientific) supplemented with 10% (vol/vol) FBS and 100 U/ml penicillin G, and 100 μg/ml streptomycin. Cells were treated for 30 mins with varying concentrations of Compound 1 in media lacking FBS and then cells were lysed in 50 μl of Cisbio lysis buffer #1 supplemented with blocking solution as per the manufacturer's protocol (Cisbio). Cells were lysed for 30 mins at room temperature before 16 μl of lysate was incubated with 4 μl of the HTRF antibodies (1:40 dilution of the acceptor and donor (p) ACC antibodies, as per the manufacturers protocol). Lysates were incubated overnight with the antibodies before 665 nm/620 nm ratio was determined using a MolecularDevices i3 plate reader (with a HTRF cartridge add-on). The results are plotted as fold activation compared to the respective AMPK complex without any compound.

Test [5] concerns AMPK complexes containing β1 S108A mutation at the ADaM site. Briefly: pACC HTRF assay in AMPKβ1/β2 double knockout U-2 OS cells stably expressing β1 S108A mutant. Type of test: cell-based, human. As to conditions: AMPKβ1β2 double knockout cells stably expressing β1 S108A mutant, varying concentrations, 30 mins at 37 C; FIG. 3. As to the method:
as §3, §4, §5

T1 sequence (P54646 whole entry): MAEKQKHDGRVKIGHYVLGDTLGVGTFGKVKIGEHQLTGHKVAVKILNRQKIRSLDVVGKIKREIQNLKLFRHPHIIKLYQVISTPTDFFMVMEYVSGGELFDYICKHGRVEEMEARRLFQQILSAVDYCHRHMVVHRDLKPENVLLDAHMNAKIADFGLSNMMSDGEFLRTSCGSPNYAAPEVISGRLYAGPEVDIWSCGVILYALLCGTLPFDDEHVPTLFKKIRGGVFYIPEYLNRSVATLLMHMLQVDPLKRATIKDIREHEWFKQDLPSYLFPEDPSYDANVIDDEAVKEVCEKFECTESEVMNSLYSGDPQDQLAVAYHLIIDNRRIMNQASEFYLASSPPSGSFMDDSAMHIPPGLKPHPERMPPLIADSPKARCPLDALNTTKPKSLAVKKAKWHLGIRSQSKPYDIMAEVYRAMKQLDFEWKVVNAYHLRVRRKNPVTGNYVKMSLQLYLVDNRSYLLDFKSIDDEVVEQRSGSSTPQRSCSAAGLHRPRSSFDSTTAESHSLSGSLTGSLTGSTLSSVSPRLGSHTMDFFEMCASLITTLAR
T1 sequence (Q9Y478 whole entry): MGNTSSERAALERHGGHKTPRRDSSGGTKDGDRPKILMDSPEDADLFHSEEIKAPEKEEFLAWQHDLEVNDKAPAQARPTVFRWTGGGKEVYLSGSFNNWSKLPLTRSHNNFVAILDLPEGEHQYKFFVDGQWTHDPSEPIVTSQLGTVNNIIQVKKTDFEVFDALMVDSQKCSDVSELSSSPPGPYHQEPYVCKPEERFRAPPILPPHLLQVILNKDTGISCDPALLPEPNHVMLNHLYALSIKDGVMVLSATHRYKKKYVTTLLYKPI
T1 sequence (P54619 whole entry partner): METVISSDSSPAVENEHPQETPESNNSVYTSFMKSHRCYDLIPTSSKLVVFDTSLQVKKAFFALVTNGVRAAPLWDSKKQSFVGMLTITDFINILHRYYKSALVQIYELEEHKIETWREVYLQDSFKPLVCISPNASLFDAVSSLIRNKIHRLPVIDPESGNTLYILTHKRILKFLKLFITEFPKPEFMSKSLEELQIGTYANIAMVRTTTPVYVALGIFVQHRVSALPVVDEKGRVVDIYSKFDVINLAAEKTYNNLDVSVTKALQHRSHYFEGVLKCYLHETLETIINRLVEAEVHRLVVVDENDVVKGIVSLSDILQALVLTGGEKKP

In the case of `COc1cc(O)c2c(c1)COc1cc(O)ccc1-2` [Compound 2, 8-methoxy-6H-benzo[c]chromene-3,10-diol], the “Phosphorylation of ACC (pACC, fold increase relative to untreated cells)” value in test [1] is “not able to increase pACC”; in test [3], “able to dose-dependently increase pACC”; in test [5], “not able to increase pACC”. For the same compound, the “AMPK activity (665 nm/620 nm ratio, STK1 substrate phosphorylation)” value in test [2] is reported as “allosterically activate AMPKα2β1γ1 in a dose-dependent manner”. Moreover, the “Phosphorylation of ACC (fold activation relative to untreated cells)” value in test [4] is on record as “increase the phosphorylation of the AMPK substrate, ACC, in a dose-dependent manner”.
Regarding `COc1cc(O)c2c(c1)OCc1cc(O)ccc1-2` [Compound 1, 3-methoxy-6H-benzo[c]chromene-1,8-diol], the figures for the “Phosphorylation of ACC (pACC, fold increase relative to untreated cells)” value in test [1], in test [3] and in test [5] were “not able to increase pACC”, “able to dose-dependently increase pACC” and “not able to increase pACC”, respectively. Further, in test [2], the “AMPK activity (665 nm/620 nm ratio, STK1 substrate phosphorylation)” value is on record as “allosterically activate AMPKα2β1γ1 in a dose-dependent manner”. Besides, in test [4], the “Phosphorylation of ACC (fold activation relative to untreated cells)” value was “increase the phosphorylation of the AMPK substrate, ACC, in a dose-dependent manner”.
